Experimental data taken from article PMC12362587, “Untargeted Diversity-Oriented Synthesis for the Discovery of New Antitumor Agents: An Integrated Approach of Inverse Virtual Screening, Bioinformatics, and Omics for Target Deconvolution” (Journal of Medicinal Chemistry, 2025).

Columns and labels:
[1] = tested on: A375 cells; assay: Intracellular ROS measurement (DCFH-DA); type: cell-based, human; conditions: 10, 5, 2.5 μM for 2–8 h
Protocol: Cells were treated with compounds 31 and 63 (10, 5, and 2.5 μM) for 2–8 h, and ROS levels were subsequently measured.
The intracellular ROS generation was detected using 10 μM DCFH-DA. This compound is oxidized by ROS to fluorescent […] (DCF) inside the cells. A375 cells were seeded (5 × 10^3 cells/well) in a volume of 100 μL per well in black 96-well OptiPlate (PerkinElmer, USA), allowing them to adhere for 24 h. After, the cells were incubated for 2, 4, and 8 h with compounds (10, 5, and 2.5 μM). Subsequently, the cells were washed twice with PBS and a staining solution containing DCFH-DA in serum-free medium without phenol red was added for 30 min at 37 °C in the dark. The stained cells were washed, and the fluorescence signals (excitation/emission 485 nm/535 nm) were read using a PerkinElmer EnSpire multimode plate reader and expressed as DCFH fluorescence intensity.

[2] = molecular target: T1, Cathepsin K (Homo sapiens, UniProt P43235); assay: Cathepsin K Inhibitor Screening Assay Kit (BPS Bioscience); type: biochemical; conditions: top concentration 30 μM; read-out: EC50 or IC50, Cathepsin K
T1 construct: purchased BPS Bioscience
Protocol: The assay was performed in a volume of 50 μL in a 96-well black plate. The Cathepsin K inhibitor assay (BPS Bioscience, USA) was designed to measure protease activity by the presence of an internally quenched fluorogenic substrate. Upon cleavage by Cathepsin K (CTSK), the fluorescence of the substrate increases dramatically. For the activity measurement, protease (final concentration, 0.5 ng per reaction), the Fluorogenic Cathepsin K Substrate (final concentration, 70 μM), E-64 (known inhibitor, as positive control) or compounds were incubated for 1 h at room temperature. The compounds were added at different concentrations in the reaction buffer, starting with a final concentration of 30 μM. Buffer with the same amount of DMSO (1%) was used as a negative control. After the incubation time, the fluorescence signals (excitation/emission, 360 nm/460 nm) were read with a PerkinElmer EnSpire multimode plate reader (PerkinElmer, Waltham, MA, USA). Experiments were performed in triplicate. IC50 values were calculated with GraphPad Prism 8.0 software by nonlinear dose–response inhibition regression.

[3] = molecular target: T2, Thromboxane Synthase (Homo sapiens, UniProt P24557); assay: Enzymatic LeadHunter Assay; type: biochemical; conditions: Eurofins enzymatic; read-out: EC50 or IC50, Thromboxane Synthase
T2 construct: Eurofins (contract assay)
Excerpt: (§1) For displacement assays on G-protein coupled receptor 55 (GPR55), Vasopressin V2 receptor (V2R), Adenosine A1 receptor (A1AR), Fibroblast growth factor receptor 1 (FGFR1), Vascular endothelial growth factor receptor 2 (VEGFR2), Platelet-derived growth factor receptor beta (PDGFRB), Vascular endothelial growth factor receptor 1 (VEGFR1), Thromboxane Synthase (TXS) and Phosphodiesterase 10A (PDE10A), we commissioned the Eurofins company which employed its specific experimental methods, accessible at the link: https://www.eurofins.com/.

[4] = molecular target: T3, Phosphodiesterase 10A2 (Homo sapiens, UniProt Q9Y233); assay: Enzymatic LeadHunter Assay; type: biochemical; conditions: Eurofins enzymatic; read-out: EC50 or IC50, Phosphodiesterase 10A2
T3 construct: Eurofins (contract assay)
Excerpt: as §1

[5] = molecular target: T4, Vascular Endothelial Growth Factor Receptor (VEGFR-2)/KDR (Homo sapiens, UniProt P35968); assay: Kinase Enzymatic Radiometric [10 uM ATP] KinaseProfiler LeadHunter Assay; type: biochemical; conditions: Eurofins, read-out: EC50 or IC50, VEGFR-2/KDR
T4 construct: Eurofins (contract assay)
Excerpt: as §1

[6] = molecular target: T5, Vascular Endothelial Growth Factor Receptor-1 Flt-1 (VEGFR1) (FLT1) (Homo sapiens, UniProt P17948); assay: as above; type: biochemical; conditions: Eurofins, read-out: EC50 or IC50, VEGFR1 (FLT1)
T5 construct: Eurofins (contract assay)
Excerpt: as §1

[7] = molecular target: T6, Platelet-Derived Growth Factor Receptor-Beta (PDGFRB) (Homo sapiens, UniProt P09619); assay: as above; type: biochemical; conditions: Eurofins, read-out: EC50 or IC50, PDGFRB
T6 construct: Eurofins (contract assay)
Excerpt: as §1

[8] = molecular target: T7, Fibroblast Growth Factor Receptor 1 (FGFR1) (Homo sapiens, UniProt P11362); assay: as above; type: biochemical; conditions: Eurofins, read-out: EC50 or IC50, FGFR1
T7 construct: Eurofins (contract assay)
Excerpt: as §1

[9] = molecular target: T8, isocitrate dehydrogenase (IDH1 R132H) (Homo sapiens, UniProt O75874, R132H); assay: IDH1 enzyme assay (R132H; BPS Bioscience); type: biochemical; conditions: top concentration 30 μM
T8 construct: purchased BPS Bioscience
Protocol: The assay was performed in a volume of 100 μL in a 96-well black plate. The IDH1 enzyme assay (R132H; BPS Bioscience, USA) was designed to measure IDH1 enzyme activity by measuring NADPH consumption. For activity measurement, the enzyme (final concentration, 2.5 ng per reaction), α-ketoglutarate (IDH1 substrate; final concentration, 4 mM), NADPH (final concentration, 500 μM), and compounds were incubated for 1 h at room temperature. The compounds were added at different concentrations in the reaction buffer, starting from a final concentration of 30 μM. Buffer with the same amount of DMSO (1%) was used as a negative control. After the incubation time, NADPH detection reagent was added for 5 min at room temperature. The fluorescence signals (excitation/emission, 544 nm/600 nm) were read using a PerkinElmer EnSpire multimode plate reader (PerkinElmer, Waltham, MA, USA). The experiments were performed in triplicate. The IC50 values were calculated using GraphPad Prism 8.0 software by nonlinear regression of dose–response inhibition.

[10] = molecular target: T9, PPARγ-Ligand Binding Domain (human recombinant) (Homo sapiens, UniProt P37231); assay: PPARγ-LBD Ligand Screening Assay Kit (Cayman); conditions: PPARγ-LBD probe displacement, top concentration 30 μM; read-out: EC50 or IC50, peroxisome proliferator-activated receptor gamma
T9 construct: purchased Cayman
Protocol: The assay was performed in a volume of 50 μL in a 96-well plate. In the PPARγ-Ligand Binding Domain screening assay (Cayman, USA), a ligand of Peroxisome proliferator-activated receptor gamma (PPARγ) is conjugated to fluorescein and is used as a displacement probe. To evaluate the binding ability to the target, PPARγ-Ligand Binding Domain (human recombinant), PPARγ Probe – Green and the compounds were incubated in the dark for 1 h at room temperature. The compounds were added at different concentrations in the reaction buffer, starting from a final concentration of 30 μM. Buffer with the same amount of DMSO (1%) was used as a negative control. The fluorescence signals (excitation/emission, 490 nm/520 nm) were read using a PerkinElmer EnSpire multimode plate reader (PerkinElmer, Waltham, MA, USA). The experiments were performed in triplicate. The IC50 values were calculated using GraphPad Prism 8.0 software by nonlinear regression of dose–response inhibition.

T4 sequence (P35968 20-1356): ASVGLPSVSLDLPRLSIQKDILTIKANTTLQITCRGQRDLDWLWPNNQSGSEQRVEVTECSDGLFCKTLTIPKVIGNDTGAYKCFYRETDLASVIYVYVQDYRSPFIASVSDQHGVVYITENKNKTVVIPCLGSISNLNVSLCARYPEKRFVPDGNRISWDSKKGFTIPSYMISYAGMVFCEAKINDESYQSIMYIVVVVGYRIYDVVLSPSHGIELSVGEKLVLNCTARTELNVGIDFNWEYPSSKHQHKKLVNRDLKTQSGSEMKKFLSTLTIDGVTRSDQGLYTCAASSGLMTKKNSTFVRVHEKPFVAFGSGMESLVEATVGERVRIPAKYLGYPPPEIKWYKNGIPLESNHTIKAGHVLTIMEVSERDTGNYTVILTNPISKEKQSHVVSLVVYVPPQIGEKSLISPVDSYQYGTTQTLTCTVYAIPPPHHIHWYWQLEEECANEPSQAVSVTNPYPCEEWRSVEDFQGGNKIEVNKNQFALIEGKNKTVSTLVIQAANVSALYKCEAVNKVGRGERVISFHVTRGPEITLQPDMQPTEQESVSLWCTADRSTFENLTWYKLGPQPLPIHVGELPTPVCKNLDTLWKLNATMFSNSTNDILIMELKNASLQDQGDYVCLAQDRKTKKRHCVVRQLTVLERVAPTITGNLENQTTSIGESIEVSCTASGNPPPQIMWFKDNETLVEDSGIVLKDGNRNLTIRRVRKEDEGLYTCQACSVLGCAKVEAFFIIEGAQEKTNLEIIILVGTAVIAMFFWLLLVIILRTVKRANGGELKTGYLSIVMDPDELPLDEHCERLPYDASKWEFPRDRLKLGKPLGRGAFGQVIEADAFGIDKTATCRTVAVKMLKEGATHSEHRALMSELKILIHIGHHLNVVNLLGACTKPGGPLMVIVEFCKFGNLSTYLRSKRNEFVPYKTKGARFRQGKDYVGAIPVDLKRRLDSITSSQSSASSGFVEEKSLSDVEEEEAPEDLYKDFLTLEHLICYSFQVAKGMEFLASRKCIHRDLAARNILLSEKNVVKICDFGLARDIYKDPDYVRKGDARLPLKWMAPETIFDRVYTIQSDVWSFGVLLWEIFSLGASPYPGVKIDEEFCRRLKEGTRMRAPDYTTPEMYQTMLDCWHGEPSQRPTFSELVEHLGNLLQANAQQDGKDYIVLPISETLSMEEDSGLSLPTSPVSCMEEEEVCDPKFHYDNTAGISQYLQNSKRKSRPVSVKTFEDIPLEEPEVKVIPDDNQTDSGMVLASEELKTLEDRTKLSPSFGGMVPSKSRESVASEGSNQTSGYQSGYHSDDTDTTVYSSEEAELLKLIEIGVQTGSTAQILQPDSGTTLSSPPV
T7 sequence (P11362 22-822): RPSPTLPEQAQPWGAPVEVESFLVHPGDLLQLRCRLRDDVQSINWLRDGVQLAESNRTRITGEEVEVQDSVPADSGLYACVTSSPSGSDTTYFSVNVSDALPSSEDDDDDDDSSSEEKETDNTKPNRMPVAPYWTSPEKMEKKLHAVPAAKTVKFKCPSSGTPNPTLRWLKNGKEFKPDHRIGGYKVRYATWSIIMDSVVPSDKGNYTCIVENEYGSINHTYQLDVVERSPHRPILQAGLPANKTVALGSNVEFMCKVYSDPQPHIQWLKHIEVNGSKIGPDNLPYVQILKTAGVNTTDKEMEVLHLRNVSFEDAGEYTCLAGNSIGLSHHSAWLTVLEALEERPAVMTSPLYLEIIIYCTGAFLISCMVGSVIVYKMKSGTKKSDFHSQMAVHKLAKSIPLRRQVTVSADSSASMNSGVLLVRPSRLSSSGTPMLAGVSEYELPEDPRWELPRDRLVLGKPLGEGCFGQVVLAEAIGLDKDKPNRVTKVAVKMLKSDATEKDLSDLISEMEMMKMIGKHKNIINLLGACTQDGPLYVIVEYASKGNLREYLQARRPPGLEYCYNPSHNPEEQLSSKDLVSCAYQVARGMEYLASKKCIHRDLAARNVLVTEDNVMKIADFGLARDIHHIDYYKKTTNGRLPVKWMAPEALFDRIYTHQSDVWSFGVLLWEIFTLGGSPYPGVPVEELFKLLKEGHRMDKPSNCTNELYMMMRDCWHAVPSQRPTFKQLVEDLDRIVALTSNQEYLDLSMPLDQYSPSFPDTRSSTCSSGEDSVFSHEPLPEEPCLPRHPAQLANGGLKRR
T9 sequence (P37231 238-503 limits assumed): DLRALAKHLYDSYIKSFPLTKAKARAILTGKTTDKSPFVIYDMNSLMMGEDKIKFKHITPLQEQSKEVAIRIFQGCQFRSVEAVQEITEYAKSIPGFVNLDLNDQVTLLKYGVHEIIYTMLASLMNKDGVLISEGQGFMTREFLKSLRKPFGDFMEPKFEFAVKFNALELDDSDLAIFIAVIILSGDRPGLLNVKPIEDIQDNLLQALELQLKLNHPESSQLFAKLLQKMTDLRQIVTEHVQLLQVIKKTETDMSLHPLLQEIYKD
T1 sequence (P43235 115-329): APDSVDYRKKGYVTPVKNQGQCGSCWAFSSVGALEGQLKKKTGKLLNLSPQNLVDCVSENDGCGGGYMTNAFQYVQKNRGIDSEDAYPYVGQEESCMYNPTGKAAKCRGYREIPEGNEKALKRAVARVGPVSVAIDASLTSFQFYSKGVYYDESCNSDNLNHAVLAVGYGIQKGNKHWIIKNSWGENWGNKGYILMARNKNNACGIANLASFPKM
T2 sequence (P24557 whole entry): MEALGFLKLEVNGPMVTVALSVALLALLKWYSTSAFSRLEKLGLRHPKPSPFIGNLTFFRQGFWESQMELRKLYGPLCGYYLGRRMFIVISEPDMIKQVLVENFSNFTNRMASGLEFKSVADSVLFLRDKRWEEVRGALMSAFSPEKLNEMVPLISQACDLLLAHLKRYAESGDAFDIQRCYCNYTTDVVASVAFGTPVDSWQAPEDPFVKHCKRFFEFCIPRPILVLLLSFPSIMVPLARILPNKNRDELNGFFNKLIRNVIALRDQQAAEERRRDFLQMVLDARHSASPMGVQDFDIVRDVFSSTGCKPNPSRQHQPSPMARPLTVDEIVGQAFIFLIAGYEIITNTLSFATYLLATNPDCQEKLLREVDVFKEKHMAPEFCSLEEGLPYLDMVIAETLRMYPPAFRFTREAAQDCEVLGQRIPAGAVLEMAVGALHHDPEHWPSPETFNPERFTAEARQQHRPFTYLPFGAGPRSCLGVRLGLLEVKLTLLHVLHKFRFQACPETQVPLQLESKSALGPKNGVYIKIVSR
T5 sequence (P17948 27-1338): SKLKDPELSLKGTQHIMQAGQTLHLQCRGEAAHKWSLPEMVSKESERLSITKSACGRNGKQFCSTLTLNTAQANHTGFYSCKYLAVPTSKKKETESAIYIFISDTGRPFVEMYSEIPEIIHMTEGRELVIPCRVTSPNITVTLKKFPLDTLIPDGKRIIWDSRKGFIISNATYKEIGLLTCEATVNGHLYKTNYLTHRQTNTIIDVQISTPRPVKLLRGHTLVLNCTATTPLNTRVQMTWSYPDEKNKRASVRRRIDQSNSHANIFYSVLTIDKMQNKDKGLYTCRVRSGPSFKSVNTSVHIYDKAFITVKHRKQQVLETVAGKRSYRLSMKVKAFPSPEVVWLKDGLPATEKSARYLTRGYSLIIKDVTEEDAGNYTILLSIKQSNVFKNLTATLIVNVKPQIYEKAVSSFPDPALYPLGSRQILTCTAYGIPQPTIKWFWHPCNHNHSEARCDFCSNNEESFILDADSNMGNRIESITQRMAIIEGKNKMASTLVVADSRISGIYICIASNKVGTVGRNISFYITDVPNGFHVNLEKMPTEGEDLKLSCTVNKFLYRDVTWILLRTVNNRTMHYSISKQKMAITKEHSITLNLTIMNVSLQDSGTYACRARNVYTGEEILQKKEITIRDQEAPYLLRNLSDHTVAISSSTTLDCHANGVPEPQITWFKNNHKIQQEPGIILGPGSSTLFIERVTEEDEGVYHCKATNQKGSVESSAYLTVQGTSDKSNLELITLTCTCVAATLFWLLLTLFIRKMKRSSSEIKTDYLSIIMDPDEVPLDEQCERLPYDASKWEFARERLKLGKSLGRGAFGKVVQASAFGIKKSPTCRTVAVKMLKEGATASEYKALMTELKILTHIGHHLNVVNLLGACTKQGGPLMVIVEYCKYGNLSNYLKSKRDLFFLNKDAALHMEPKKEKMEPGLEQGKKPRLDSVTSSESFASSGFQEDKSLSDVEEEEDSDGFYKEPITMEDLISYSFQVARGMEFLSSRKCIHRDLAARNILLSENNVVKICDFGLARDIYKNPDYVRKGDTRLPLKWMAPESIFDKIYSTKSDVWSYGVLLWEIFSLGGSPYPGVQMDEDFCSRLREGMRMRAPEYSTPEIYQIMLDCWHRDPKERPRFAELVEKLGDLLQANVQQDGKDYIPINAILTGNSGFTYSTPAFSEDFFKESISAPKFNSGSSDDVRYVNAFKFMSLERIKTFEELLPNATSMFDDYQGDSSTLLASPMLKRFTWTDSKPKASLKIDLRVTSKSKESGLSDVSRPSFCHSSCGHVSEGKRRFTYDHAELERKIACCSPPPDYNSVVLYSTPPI
T8 sequence (O75874 whole entry R132H): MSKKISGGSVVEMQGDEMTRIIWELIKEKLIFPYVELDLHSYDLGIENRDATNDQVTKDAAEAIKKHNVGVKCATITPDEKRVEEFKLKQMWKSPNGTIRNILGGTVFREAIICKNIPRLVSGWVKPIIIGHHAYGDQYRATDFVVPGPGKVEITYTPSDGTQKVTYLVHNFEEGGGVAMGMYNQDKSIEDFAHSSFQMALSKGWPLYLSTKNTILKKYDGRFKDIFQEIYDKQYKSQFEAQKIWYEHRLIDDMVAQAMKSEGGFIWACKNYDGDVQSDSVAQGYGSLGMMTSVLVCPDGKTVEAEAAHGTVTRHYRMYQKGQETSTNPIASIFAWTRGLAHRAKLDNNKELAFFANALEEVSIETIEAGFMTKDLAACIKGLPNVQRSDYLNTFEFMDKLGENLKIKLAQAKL

| IC50 [2] [µM] | IC50 [3] [µM] | IC50 [4] [µM] | IC50 [5] [µM] | IC50 [6] [µM] | IC50 [7] [µM] | IC50 [8] [µM] | IC50 ([9]; read-out: EC50 or IC50, isocitrate dehydrogenase) [µM] | IC50 [10] [µM] | EC50 or IC50, isocitrate dehydrogenase [9] | SMILES | intracellular ROS levels [1] |
| --- | --- | --- | --- | --- | --- | --- | --- | --- | --- | --- | --- |
| > 30 | ≥ 30 | ≥ 30 | ≥ 30 | ≥ 30 | ≥ 30 | ≥ 30 | 14.9 ± 2.12 | > 30 |  | CC(C)C[C@H]1C(=O)N(Cc2ccc(C(F)(F)F)cc2)c2ccccc2C(=O)N1Cc1ccc(C(F)(F)F)cc1 [Compound 31, (S)-3-Isobutyl-1,4-bis(4-(trifluoromethyl)benzyl)-3,4-dihydro-1H-benzo[e][1,4]diazepine-2,5-dione] | significant concentration-dependent increase in ROS levels |
| > 30 | ≥ 30 | ≥ 30 | ≥ 30 | ≥ 30 | ≥ 30 | ≥ 30 |  | > 30 | not soluble | CC(C)C[C@@H](C(=O)OCc1ccccc1)N1Cc2ccccc2NC1=O [Compound 63, Benzyl (S)-4-Methyl-2-(2-oxo-1,4-dihydroquinazolin-3(2H)-yl)pentanoate] | delayed and more moderate effect than compound 31 |
